Holding throughout (assay type): in vivo, human
In test [1] the test system is test subjects. Put plainly: subjectively sensed temperature of constant-temperature water on the hands while smelling an aroma. The settings on record: 28° C. water, seven-point scale 7 hot to 1 extremely cold, 12 test subjects. As to the method: As a result of various research, the inventors discovered that the aroma given off by a specific perfume component can change the temperature subjectively sensed by a person (temperature sense). 12 test subjects put there hands into water held at a constant temperature, and the subjectively sensed temperature of the water was assessed on a seven-point scale in which 7 was hot, 6 was warm, 5 was somewhat warm, 4 was “can't say,” 3 was somewhat cold, 2 was cold, and 1 was extremely cold. The same 12 test subjects were asked to smell a peppermint aroma while once again putting their hands into water held at a constant temperature, and the subjectively sensed temperature of the water was assessed on a seven-point scale. The same experiment was repeated by raising the water temperature one degree at a time, and the testers looked for the temperature at which the assessment given under conditions of smelling the peppermint aroma was the same as the assessment given under conditions of no aroma at 28° C. […]
Also, to examine the change in temperature sense with and without aroma, the 12 test subjects put their hands in water with a temperature of 28° C., and the subjectively sensed temperature was assessed on a seven-point scale in the same manner as above. […]

Test [2] has as its system test subjects. Put plainly: cream temperature sense and usability/skin feel with scented cotton versus no aroma. Set-up: key to Absorption into skin / Youthfulness of skin / Stickiness of skin: five-point scale, 5 = I agree to 1 = I disagree. The settings on record: for effect on temperature sense (raising or lowering) / perceived usability/skin feel, heavy-spreading or light-spreading / perceived usability/skin feel, moist or fresh: result in words; for Cream spreading (heavy) / Cream spreading (light) / Thickness of cream / Cream temp. sense (warm) / Cream temp. sense (cold) / Skin tightness / Absorption into skin / Firmness of skin / Non-stickiness of skin / Plumpness of skin / Skin freshness / Skin moistness / Skin smoothness / Skin suppleness / Stickiness of skin / Youthfulness of skin: average; for Cream spreading (heavy) / Cream spreading (light) / Thickness of cream / Absorption into skin / Firmness of skin / Non-stickiness of skin / Plumpness of skin / Skin freshness / Skin moistness / Skin smoothness / Skin suppleness / Stickiness of skin / Youthfulness of skin: five-point scale 5 to 1; for Cream temp. sense (warm): five-point scale 5 warm to 1 cold; for Cream temp. sense (cold): five-point scale, unscented cream, aroma smelled from cotton; for Skin tightness: five-point scale 5 (I agree) to 1 (I disagree). The protocol: Just as with the survey conducted for temperature sense above, 17 or 18 women 20 to 24 years of age were selected for this test, cotton to which no perfume had been applied was affixed to one arm, and cotton to which perfume had been applied was affixed to the other arm, the arms were each coated with an unscented cream while the subjected smelled the aroma of the cotton, and the subjectively sensed temperature of the cream was assessed on a five-point scale in which 5 was warm, 4 was somewhat warm, 3 was “can't say,” 2 was somewhat cold, and 1 was cold.
Next, the correlation of aroma-induced cosmetic temperature sense, usability, and how the cosmetic actually felt on the skin, and the correlation with the image of the aroma were tested for the above-mentioned 24 different raw material perfumes. […] The aroma image was assessed on a seven-point scale from 0 to 6, while the usability/skin feel was assessed on a five-point scale from 5 (“I agree”) to 1 (“I disagree”). In addition to assessing usability, the impression of the aroma of the perfume was also assessed at the same time. To prevent the perfume from modifying the cream, a method was employed in which the perfume component was not directly added to the cream, but was instead applied to the cotton and smelled.
The following wording was selected for usability/skin feel. • How well a cream spreads: light to heavy • Absorption into the skin: fast to slow • Makes the skin look youthful?: yes to no • Makes the skin feel sticky?: yes to no • Makes the skin feel fresh?: yes to no • Makes the skin feel moist?: yes to no • Makes the skin feel non-sticky?: yes to no • Makes the skin feel smooth?: yes to no • Makes the skin feel supple?: yes to no • Makes the skin feel tight?: yes to no • Each of these was assessed on a five-point-scale. • For impressions of aroma, words that readily express the characteristics of an aroma, and four different words (natural, rich, tender, and sharp) were selected as generic terms from among sensory adjectives and emotional adjectives used to express the five senses. Each generic term encompasses specific aroma impression words. For example, “natural” encompasses impression expressions such as transparent, bright, natural, [3] pure, etc.; “rich” encompasses thick, sultry, mature, glossy, sexy, etc.; “tender” encompasses mild, sweet, gentle, graceful, etc; and “sharp” encompasses bracing, sharp, cool, etc. […] However, the words used to express usability/skin feel and the words used to express impressions of aroma are nothing more than examples, and [the present invention] is not limited to or by these words.

The test system of test [3] is test subjects. Nature of the test: moisture content of the cheeks (corneometer) with scented cotton under nostrils. The conditions noted are these: room temperature 23 degrees, humidity 46%. As to the method: (§1) 12 female test subjects 20 to 24 years of age were asked to wash their face and attach a piece of scented cotton under their nostrils, which was left alone for a few minutes at a room temperature of 23 degrees and a humidity of 46%, after which the moisture content (corneometer) and sebum content (sebumeter) of the cheeks were measured.

Test [4] relates to test subjects. Put plainly: sebum content of the cheeks (sebumeter) with scented cotton under nostrils. The settings on record: room temperature 23 degrees, humidity 46%. The protocol: as §1
Test [5] has as its system test subjects. Nature of the test: temperature sense of a space (clear boxes with and without aroma). The conditions noted are these: face put into box with aroma versus box without; FIG. 7; result in words. An excerpt: Also, it is possible to change the temperature sense of a person located in a specific space by dispersing in that space, by volatilization or another such means, a perfume composition containing the above-mentioned perfume component capable of changing a person's temperature sense, and having the person smell the aroma. To test this, a clear box containing scented paper and another clear box containing unscented paper were readied, and an experiment was conducting by having a test subject put his or her face into each of the boxes and compare the temperature sense of the space. […] FIG. 5 is a graph of the assessment results, and it can be seen that the temperature sense of a person located in a space can be changed by aroma. When the perfume composition is dispersed in the space so that the person will smell it, the concentration of the aroma is preferably about 0.01 to 10 ppm. With peppermint oil, for instance, about 0.4 ppm is favorable. […] The test subject put his or her face into first one box and then the other and compared the temperature sense of the space. This experiment was conducted for three different aromas, namely, peppermint, bergamot, and vanillin. A lid 6 that could be opened and closed was provided to the top of each of the boxes 1 and 2. The test subjects and experiment conditions were the same as discussed above. […]

The values below come from patent US20100048686A1, “Perfume Composition For Temperature Sense Control, Sense Control Article, Sense Control Method, And Perfume Map” (SHISEIDO CO., LTD., priority 2003, published 2010).

For `CC(C)[C@@H]1CC[C@@H](C)C[C@H]1O` [L-menthol], in the test with test subjects [1], the “subjectively sensed temperature of the water, average assessment” value was found to be 4.125.

Take `Cc1ccc2c(c1)OCC(=O)CO2` [7-methyl-3,4-dihydro-(2H)-1,5-benzodioxepin-3-one]: in the test on test subjects [2], the “effect on temperature sense (raising or lowering)” value (“effect … (raising or lowering)” for short) is given as “capable of lowering temperature sense”; the “perceived usability/skin feel, heavy-spreading or light-spreading” value was “light-spreading usability/skin feel”; the “perceived usability/skin feel, moist or fresh” value was “fresh usability/skin feel”.

Regarding `COC(=O)c1ccccc1N=CCC(C)CCCC(C)(C)O` (centres unmarked) [methyl-N-3,7-dimethyl-7-hydroxyoctylidene-anthranilate], in the test on test subjects [2], the “effect … (raising or lowering)” value was “capable of lowering temperature sense”; the “perceived usability/skin feel, heavy-spreading or light-spreading” value is reported as “heavy-spreading usability/skin feel”; the “perceived usability/skin feel, moist or fresh” value was “fresh usability/skin feel”.

On to `COc1cc(C=O)ccc1O` [C, vanillin], for which, in the test on test subjects [2], the “Cream spreading (heavy)” value was 3.1, the “Cream spreading (light)” value was 2.9, the Thickness of cream amounted to 2.8 and the “Cream temp. sense (warm)” value came to 4.1. In the test with test subjects [2], the “Cream temp. sense (cold)” value came to 1.9 and the “effect … (raising or lowering)” value is reported as “capable of raising temperature sense”. In addition, in the test with test subjects [3], the Moisture content is reported as 69.3 (increase). Further, the Sebum content result with test subjects [4] is given as “no difference attributable to aroma”. In the test on test subjects [5], the “sense of warmth or cold inside the box” value was “gave a warm sensation”.

Regarding `CC1=CC(C)C(C=O)CC1` (centres unmarked) [E, 2,4-dimethyl-3-cyclohexenyl carboxyaldehyde], in the test on test subjects [2], the Skin tightness is 2.4, the Absorption into skin stood at 2.9, the “Cream spreading (heavy)” value is given as 2.7 and the “Cream spreading (light)” value is listed as 3.3. In the test with test subjects [2], this molecule registered a Firmness of skin of 2.8, a Non-stickiness of skin of 2.6, a Plumpness of skin of 2.3 and a Skin freshness of 3.1. In the test on test subjects [2], this molecule displayed a Skin moistness of 3.3, a Skin smoothness of 3.8, a Skin suppleness of 3.4 and a Stickiness of skin of 3.2. Moreover, in the test with test subjects [2], the Thickness of cream is 3.1, the Youthfulness of skin was 3.7, the “Cream temp. sense (warm)” value is given as 2.5 and the “Cream temp. sense (cold)” value is 3.5. In addition, in the test on test subjects [2], the “effect … (raising or lowering)” value is “capable of lowering temperature sense”; the “perceived usability/skin feel, heavy-spreading or light-spreading” value was “light-spreading usability/skin feel”; the “perceived usability/skin feel, moist or fresh” value is recorded as “fresh usability/skin feel”.

As for `O=Cc1ccc2c(c1)OCO2` [heliotropine], in the test with test subjects [2], the “effect … (raising or lowering)” value is “capable of raising temperature sense”; the “perceived usability/skin feel, heavy-spreading or light-spreading” value is “light-spreading usability/skin feel”; the “perceived usability/skin feel, moist or fresh” value was “moist usability/skin feel”.

In the case of `CC(=O)/C=C/C1=C(C)CCCC1(C)C` [β-ionone], in the test on test subjects [2], the “effect … (raising or lowering)” value is listed as “capable of raising temperature sense”; the “perceived usability/skin feel, heavy-spreading or light-spreading” value is listed as “light-spreading usability/skin feel”; the “perceived usability/skin feel, moist or fresh” value was “moist usability/skin feel”.

For L-carvone, the “subjectively sensed temperature of the water, average assessment” value in the test on test subjects [1] came to 4.

With `CCCCCCCC1CCC(=O)O1` (centres unmarked) [G, γ-undecalactone], in the test on test subjects [2], the “Cream spreading (heavy)” value is 2.2, the “Cream spreading (light)” value is 3.8, the Thickness of cream amounted to 2.1 and the “Cream temp. sense (warm)” value worked out at 3.2. In the test with test subjects [2], the “Cream temp. sense (cold)” value is 2.8 and the “effect … (raising or lowering)” value is “capable of raising temperature sense”.

Turning to `CC1COCc2cc3c(cc21)C(C)(C)C(C)C3(C)C` (centres unmarked) [4,6,6,7,8,8-hexamethyl-1,3,4,6,7,8-hexahydrocyclopentabenzopyran], in the test with test subjects [2], the “effect … (raising or lowering)” value is “capable of raising temperature sense”; the “perceived usability/skin feel, heavy-spreading or light-spreading” value is reported as “light-spreading usability/skin feel”; the “perceived usability/skin feel, moist or fresh” value is on record as “moist usability/skin feel”.

On to `Cc1occc(=O)c1O` [maltol], for which, in the test on test subjects [2], the “effect … (raising or lowering)” value is reported as “capable of raising temperature sense”.

Consider `CC(C=O)Cc1ccc(C(C)(C)C)cc1` (stereo not drawn) [B, 4-tert-butyl-α-methylhydroxycinnamic aldehyde], for which, in the test on test subjects [2], the Skin tightness was 3.3, the Absorption into skin is listed as 3.5, the “Cream spreading (heavy)” value is 2.2 and the “Cream spreading (light)” value was 3.8. In the test with test subjects [2], this molecule gave a Firmness of skin of 2.9, a Non-stickiness of skin of 2.5, a Plumpness of skin of 2.2 and a Skin freshness of 3.2. Also, in the test with test subjects [2], the Skin moistness was found to be 3.9, the Skin smoothness is 3.8, the Skin suppleness was 3.4 and the Stickiness of skin is 3.1. In the test on test subjects [2], the Thickness of cream turned out to be 2.5, the Youthfulness of skin was found to be 3.8, the “Cream temp. sense (warm)” value was determined as 3.4 and the “Cream temp. sense (cold)” value worked out at 2.6. Also, in the test on test subjects [2], the “effect … (raising or lowering)” value is reported as “capable of raising temperature sense”; the “perceived usability/skin feel, heavy-spreading or light-spreading” value is listed as “light-spreading usability/skin feel”; the “perceived usability/skin feel, moist or fresh” value is “moist usability/skin feel”.

On to `CC1(C)CCCC2(C)C1CCC1(C)OCCC12` (stereo not drawn) [3α,6,6,9α-tetramethyldodecahydronaphtho[2,1-b]furan], for which, in the test on test subjects [2], the “effect … (raising or lowering)” value is listed as “capable of raising temperature sense”; the “perceived usability/skin feel, heavy-spreading or light-spreading” value was “light-spreading usability/skin feel”; the “perceived usability/skin feel, moist or fresh” value was “moist usability/skin feel”.
